Test results reported in PubChem BioAssay AID1117338.
Activity calls are given as the source filed them. No rule for the calls is given here.

tested on: SW480 viability, CellTiter-Glo luminescence; assay: 50% inhibitory concentration in SW480 colon cancer line, survival by CellTiter-Glo luminescence, dose-dependent response (AID 1117338)

SMILES | IC50
Cc1ccc([N+](=O)[O-])[c]2c1[O][Hg]2 | 1130 nM
CC(=O)[O][Hg][c]1ccccc1 | 543 nM
OCCN1CCN(CC/C=C2/c3ccccc3Sc3ccc(C(F)(F)F)cc32)CC1 | 3930 nM
Cn1cnc([N+](=O)[O-])c1Sc1ncnc2nc[nH]c12 | 9440 nM (inactive)
O=C(O)C1(C(=O)O)CCC1.[NH2-].[NH2-].[Pt+2] | > 20000 nM (inactive)
O=C1[O][Bi][O]c2ccccc21 | > 20000 nM (inactive)
O=Cc1ccc(O)c(O)c1O | 11300 nM (inactive)
CCCCCCCCCCCCCC[N+](C)(C)C | 933 nM
